Measurements from US10517826B2, “Anthostema senegalense-based composition for use as an anti-AIDS drug” (LABORATOIRE MICHEL IDERNE, priority 2014, dated 2019).
Values after ≈ are worked out from the molar mass of the structure shown. Where two headings read alike, the source gives them in different places.

What was measured:
[1] = tested on: type 1 HIV virus (strain IIIB); test: in vitro anti-HIV test, median inhibitory concentration on HIV-1; type: cell-based; conditions: HIV-1 Strain IIIB
Experimental: (§1) An apolar extract and a polar extract of Anthostema senegalense were prepared by extraction with dichloromethane and methanol, respectively, from dried stem bark of Anthostema senegalense.
(§2) The efficacy of these extracts against the HIV virus was tested in vitro by measuring the median inhibitory concentration (IC50) of these substances on the type 1 HIV virus (strain IIIB) and on the type 2 virus (strain ROD). Their selectivity index was also measured in each case.
(§3) In order to serve as a control, three known antiretroviral molecules used in the treatment of the infection with HIV: nevirapine, dideoxycitidine and dideoxyinosine were also tested under the same conditions for comparison.

[2] = tested on: type 2 virus (strain ROD); test: in vitro anti-HIV test, median inhibitory concentration on HIV-2; type: cell-based; conditions: HIV-2 ROD Strain
Experimental: as §1, §2, §3

IC50 ([1]; Human immunodeficiency virus 1, read-out: IC50) | IC50 ([2]; Human immunodeficiency virus 2, read-out: IC50) | Compound | IC50 [1] | IC50 [2]
– | – | Nc1ccn([C@H]2CC[C@@H](CO)O2)c(=O)n1 [Dideoxycitidine, dideoxycitidine] | 0.29 µg/mL (≈ 1.37 µM) | 0.30 µg/mL (≈ 1.42 µM)
– | – | O=c1[nH]cnc2c1ncn2[C@H]1CC[C@@H](CO)O1 [Dideoxyinosine, dideoxyinosine] | 2.89 µg/mL (≈ 12.2 µM) | 4.59 µg/mL (≈ 19.4 µM)
0.047 µg/mL (≈ 0.176 µM) | > 4 µg/mL | Cc1ccnc2c1NC(=O)c1cccnc1N2C1CC1 [Nevirapine, nevirapine] | – | –
